Source: a melting point compilation (Tetko et al.; mined from patent text by program, amines drawn as free bases though some values may be those of a salt)

Row | SMILES | melting point [°C]
1 | Cc1nc(-n2cnn(CCO)c2=O)sc1C(=O)NCc1cccnc1 | 201 to 202
2 | Cc1nc2cc(-c3ccccc3C#N)ccc2[nH]1 | 205 to 208
3 | O=C(O)c1cc(-c2ccccc2)c2ccccc2n1 | 170 to 171
4 | NC(=O)N1C(=O)C(=C(OCCc2ccccc2)c2cccs2)c2cc(F)c(Cl)cc21 | 202 to 203
5 | CCN(C)C(=O)c1cc(C)c(C(c2cc(F)ccc2F)S(=O)(=O)c2ccc(F)cc2)cn1 (centres undefined) | 165 to 167
6 | CC(=O)OCCC1CCC2C3CCC4CCCCC4(C)C3CCC12C (centres undefined) | 123 to 125
7 | Cc1sc2c(c1C)C(c1ccc(Cl)cc1)=NC(CC(=O)N1CCOCC1)c1nnc(C)n1-2 (centres undefined) | 252 to 254
8 | C=CCc1c(NC(=O)C(F)(F)F)ccc2c(=O)cc(C(=O)OCC)oc12 | 136 to 137
9 | CCOC(=O)c1cnc2ccc(OCC)nc2c1Nc1ccc(OCC(O)CO)cc1 (centres undefined) | 143 to 145
10 | CCCc1c(CS(=O)Cc2ccc(-c3nnn[nH]3)cc2)ccc(C(C)=O)c1O (centres undefined) | 112 to 116
11 | CCCc1c(OCCCc2ccc(O)c(O)c2)ccc(C(=O)O)c1O | 194 to 195
12 | CC(C)C[C@H](NC(=O)OCc1ccccc1)C(=O)N[C@@H](Cc1ccccc1)C(=O)CN1CCN(C)CC1 | 99 to 100
13 | O=C1C(c2ccccc2)SCN1CCCCBr (centres undefined) | 48 to 50
14 | Cc1cc(C2CCN(S(=O)(=O)C3(C(=O)NO)CCOCC3)CC2)ccc1-c1cccc(OCCO)n1 | 193 to 194
15 | CCc1nc2c(N)nc3ccccc3c2n1CCCC(C)=O | 206 to 208
16 | CC1(C)C(=O)Nc2ccc(-c3ccc(C#N)s3)cc21 | 255 to 256
17 | NC(=O)c1cc(-c2ccc(Cl)cc2)sc1N | 255 to 257
18 | Cc1ccccc1COc1cccnc1NC(=S)Nc1ccc(Cl)cc1 | 181 to 183
19 | O=C(Oc1ccccc1)C1=C(O)CCn2c1nc1ccccc12 | 176 to 178
20 | O=C(O)c1ccc2cc(-c3ccc(CC(O)CO)c(C45CC6CC(CC(C6)C4)C5)c3)ccc2c1 (centres undefined) | 258

Second part, the compound after the results:

Row | melting point [°C] | SMILES
21 | 70 | O=C(O)CCCOc1ccc(CCNC(=O)C2Cc3ccccc3N2S(=O)(=O)c2ccc(-c3cccc(C(F)(F)F)c3)cc2)cc1 (centres undefined)
22 | 252 to 254 | CNCC1CN(c2c(F)cc3c(=O)c(C(=O)O)cn(C4CC4)c3c2F)CC1C (centres undefined)
23 | 90 to 92 | CC(C)(C)c1ccc(C2OCC(CO)([N+](=O)[O-])CO2)cc1 (centres undefined)
24 | 140 to 142 | COC1Cc2nc3cc(N)ccc3n2C1 (centres undefined)
25 | 58 to 59 | C[C@H](Cn1ncc2ccc3c(c21)C=CCO3)O[Si](C)(C)C(C)(C)C
26 | 91 to 103 | CCOP(=O)(NCC(=O)OCc1ccccc1)C1CC(c2ccccc2)=NO1 (centres undefined)
27 | 120 to 121 | O=C(Cc1cccnc1)[N+]1([O-])CCC(=C2c3ccc(Cl)cc3CCc3cccnc32)CC1 (centres undefined)
28 | 244 to 246 | Cc1ccc(C2CCN(C(=O)Nc3ccc4cc(CN5CCCC5)cnc4c3)CC2)cc1
29 | > 264 | O=c1[nH]c2c(c(O)c1[N+](=O)[O-])CCCCC2
30 | 111 to 113 | CC(C)(C)OC(=O)NCc1cccc(C2CCN(C(=O)c3ccc(C#Cc4ccccc4F)o3)CC2)c1
31 | 70 to 72 | O=C(NC/C=C\COc1cc(CN2CCCCC2)ccn1)c1csnn1
32 | 250 | O=C1Cc2cc(Br)cnc2N1
33 | 187 to 188 | O=C(O)CCc1cn(Cc2cccc(C(=O)Nc3ccccn3)c2)nc1-c1ccccc1
34 | 68 to 70 | CN1C(=O)C(c2ccc(OC(F)F)cc2)(c2cccc(C3CC(=O)C3)c2)N=C1N (centres undefined)
35 | 78 to 79 | Cc1oc(-c2ccccc2)nc1COc1ccc(CCCCCO)cc1
36 | 51 to 52 | CN(C(=O)c1ccc2nonc2c1)C1CCC1
37 | 134 to 140 | COc1cccc(C23CCCC=C2C(=O)N(CCc2ccc(C)cc2)C(=O)C3)c1 (centres undefined)
38 | 78 | C=C(Cc1ccccc1)C(=O)NN1CCNCC1
39 | 153 | CC(=O)NCCn1c(=O)[nH]c2ccccc21
